The source of these data is US20260132115A1, “SUBSTITUTED 3-FLUOROBENZENEPROPANOATE COMPOUND AND PREPARATION METHOD THEREFOR, PHARMACEUTICAL COMPOSITION THEREOF, AND USE THEREOF” (TIANJIN GUDUI BIO-PHARM CO., LTD., priority 2022, published 2026).

Structures are written as SMILES. Read-outs that look alike come from different tables or passages of the source. Some results are limits rather than exact numbers.

One data set concerns U87. Briefly: Antitumor potency, MTT method, U87. The data set is classed as cell-based. The following applies: Homo sapiens, U-87 MG, 72 h incubation. The protocol:
(§1) Experimental method: The antitumor potency was tested by the MTT method. Tumor cells at the logarithmic phase were collected. The concentration of the cell suspension was adjusted. 100 μL of the cell suspension was added to each well. Cell plating was carried out and the cell density was adjusted to 1000 to 10000/well (the marginal wells were filled with sterile PBS). The cells were incubated at 5% CO2 and 37° C. until the cells adhered to the wall (96-well flat-bottomed plate). Drugs of different concentration gradients were added, 100 μL per well. Four replicates were set up. Under the conditions of 5% CO2 and 37° C., the cells were incubated for 72 h and observed under an inverted microscope. The prepared MTT solution (5 mg/mL) was added to the 96-well plate, 20 μL per well, mixed well, and incubated for 4 h under the conditions of 37° C. and 5% CO2. Afterwards, the liquid in the plate was discarded. 150 μL of DMSO was added to each well and oscillated for 3 min on a microplate reader. The OD value (optical density) was detected at 490 nm.
(§2) The inhibition rate of the drug against the tumor cell growth was calculated according to the following formula: […]

Another data set has as its system rats with CIA. Briefly: Analgesic and anti-inflammatory effects on collagen-induced rheumatoid arthritis (CIA) in rats. The data set is classed as in vivo, Lewis rats. The following applies: for paw volume effect as compared to the flurbiprofen group: left hind limb, 14-day intervention, 10 mg/kg (FIG. 3); for MWT effect as compared to the flurbiprofen group: left lower limb, 13-day intervention, 10 mg/kg (FIG. 4). The protocol:
Experimental method: Female Lewis rats, aged 6-8 weeks, were randomly grouped, with 8 rats in each group. Under the ambient temperature of 20.5° C. to 24.5° C. and the humidity of 40% to 70%, the light period was 12-h bright and 12-h dark. Type II collagen was mixed with Freund's incomplete adjuvant (IFA) at a ratio of 1:1 and fully emulsified on ice before use. 100 μL of the mixed solution was injected intradermally at the part 2 to 3 cm from the base of the rat tail, and 50 μL of the mixed solution was injected into the bases of both hind limbs separately. The rats in the blank control group were injected with an equal volume of saline. IFA was used for re-immunization 7 days later. […] Rats with a total score of more than 2 on both hind limbs were selected and randomly divided into a model group, a flurbiprofen group, a compound 33 group, a compound 2 group, a compound 13 group, a compound 20 group, and a compound 35 group according to the body weight, score and paw volume, and furthermore a blank control group was set up, with 8 rats in each group. The dosing […] was […], and the dosing time was 14 days. A corresponding volume of solvent was administered in the model group and the blank control group.
Test indicators: body weight, arthritis score, hind limb paw volume, and mechanical foot threshold (MWT).
Standard for arthritis score: 0=normal; 1=erythema and slight swelling observed at the ankle joint; 2=erythema and slight swelling observed from the ankle joint to the metatarsal joint or the metacarpal joint; 3=erythema and moderate swelling observed from the ankle joint to the metatarsophalangeal joint or the metacarpal joint; 4=erythema and severe swelling observed from the ankle joint to the metatarsal joint; the total score of all (four) paws was calculated, and the sum of the arthritis indices was up to 16 per rat.

The next data set concerns H460. Briefly: Antitumor potency, MTT method, H460. The data set is classed as cell-based. The following applies: Homo sapiens, NCI-H460, 72 h incubation. The protocol: as §1, §2
For data set [1], the system named is Dry Yeast-Induced Rat Fever Models. Briefly: Antipyretic effect on dry yeast-induced fever in rats. The data set is classed as in vivo, SD rats. The following applies: rectal temperature, 10 mg/kg intraperitoneal, 20 min before 20% dry yeast s.c. The protocol:
Experimental method: Male SD rats, aged 4 weeks, were randomly grouped, with 10 rats in each group. […] The rats were intraperitoneally injected with saline, the compounds of the present disclosure or the control drug flurbiprofen respectively, all of which were administered at a dose of 10 mg/kg and a dosing volume of 10 μL/g. At 20 min after administration, 20% active dry yeast suspension was injected subcutaneously. After modeling, the rectal temperatures were measured at 4 h and 8 h.

The next data set deals with NUGC-4. Briefly: Antitumor potency, MTT method, NUGC-4. The data set is classed as cell-based. Conditions: Homo sapiens, 72 h incubation. As to the method:
as §1, §2
(Tetrazolium assays rely on reduction of a dye to a coloured formazan, in cell work by metabolically active cells.)

Data set [2] is described as follows: In vivo pharmacokinetic assay in rats (gavage, plasma). The following applies: female, Sprague Dawley, po, prototype drug in rat plasma, dose equimolar to 50 mg/kg flurbiprofen; for half-life: read-out: Prototype Drug t1/2 (converted). The protocol: Experimental method: Adult female Sprague Dawley rats, aged 8-10 weeks and weighing 200±20 g, were randomly grouped, with 3 rats in each group. Rats in each of the groups were administered by gavage at a dose of 50 mg/kg of flurbiprofen and an equimolar dose of other example compounds to 50 mg/kg of flurbiprofen, respectively. After gavage administration, blood was collected at 0.0833 […], and 24 h into sodium heparin anticoagulant tubes, respectively. The blood was collected by the following method: 250 μL of blood were collected from the orbital venous plexuses of the rats. After blood collection, the blood samples were centrifuged at 12000 rpm in a centrifuge for 5 min. All plasma was aspirated into a 1.5-mL centrifuge tube, and the plasma was stored in a refrigerator at -80° C. The pharmacokinetic parameters were determined by the external standard curve method. Sample processing: after the cryopreserved samples were removed and restored to room temperature, the samples were vortexed evenly and then diluted two folds with methanol; the sample solution was diluted 5 folds by adding a mixed extractant of 0.5% formic acid-containing acetonitrile:methanol=7:3, and subjected to vortex oscillation for 1 min. Subsequently, the resultant was centrifuged at 4° C. and 12000 rpm for 10 min, and then 5 μL of the supernatant was measured for assay. The pharmacokinetic parameters in the Examples were calculated using the Winnonlin software.

Data set [3] deals with λ-Carrageenan-Induced Rat Toe Swelling. Briefly: Anti-inflammatory effect on λ-carrageenan-induced rat toe swelling. The following applies: Rattus norvegicus, ip, 10 mg/kg intraperitoneal, 1 h before 1% λ-carrageenan. The data set is classed as in vivo, SD rats. The protocol:
Experimental method: Male SD rats weighing 150-160 g were randomly grouped, with 10 rats in each group. The rats were intraperitoneally injected with saline, the compounds of the present disclosure, and the control drug flurbiprofen or flurbiprofen axetil respectively, all of which were administered at a dose of 10 mg/kg and a dosing volume of 10 μL/g. At 1 h after administration, 100 μL of 1% λ-carrageenan was injected into the right hind toe of each rat to induce inflammation. Afterwards, the paw volume was measured every 1 h using a paw volume meter to calculate the swelling inhibition rate.

The subject of another data set is U251. Briefly: Antitumor potency, MTT method, U251. The data set is classed as cell-based. Conditions: Homo sapiens, U-251, 72 h incubation. The protocol: as §1, §2
The next data set concerns MM.1S. Briefly: Antitumor potency, MTT method, MM.1S. The data set is classed as cell-based. The following applies: Homo sapiens, MM1.S, 72 h incubation. As to the method:
as §1, §2

Another data set relates to Eca-109. Briefly: Antitumor potency, MTT method, Eca-109. Conditions: Homo sapiens, 72 h incubation. The data set is classed as cell-based. As to the method:
as §1, §2

[4] abbreviates: 6 h, read-out: Toe Swelling Inhibition Rate at 6 h.
[5] abbreviates: 24 h, read-out: Toe Swelling Inhibition Rate at 24 h.

As for `CC(C(=O)OCOC(=O)N1CCOCC1)c1ccc(-c2ccccc2)c(F)c1` (stereo not drawn) [Compound 2], the IC50 (commonly the concentration needed to halve the response being measured) in the data set on U87 was over 100 µM; in the data set with H460 it was 90 µM; with NUGC-4, 60 µM; in the data set on U251, over 100 µM; in the data set on MM.1S it was 41.7 µM; in the data set on Eca-109, 55.7 µM. Further, in the data set on rats with CIA, the “paw volume effect as compared to the flurbiprofen group” value is reported as “better effects”. The “MWT effect as compared to the flurbiprofen group” value in the data set with rats with CIA is “slightly better or better effects”. The “Temp. at 4 h After Dosing” value in [1] was 37.10 ± 0.17 °C. In addition, the “Temp. at 8 h After Dosing” value in [1] is 37.32 ± 0.27 °C. Also, the AUC (usually the area under the concentration-time curve, a measure of exposure) in [2] came out at 183 ± 85.9 ng·h/mL. Besides, the maximum concentration (Cmax) – broadly, the maximum level reached in the sampled fluid or tissue – in [2] was determined as 27.1 ± 7.2 ng/mL. Moreover, the half-life in [2] was 14 ± 9.88 h. Further, the inhibition in vivo at 10 mg/kg is 42.9% in data set [3] (setting [4]) and 34.1% in [3] (setting [5]).
Turning to `CCCN(CCC)C(=O)OCOC(=O)C(C)c1ccc(-c2ccccc2)c(F)c1` (stereo not drawn) [Compound 13], the IC50 in the data set with U87 was determined as 80.5 µM; in the data set on H460, 47.9 µM; with NUGC-4, 40.1 µM; with U251, 73.9 µM; in the data set on MM.1S, 5.39 µM; with Eca-109 it was 30.7 µM. Besides, the “paw volume effect as compared to the flurbiprofen group” value in the data set on rats with CIA is recorded as “better effects”. The “MWT effect as compared to the flurbiprofen group” value in the data set with rats with CIA is given as “slightly better or better effects”. In data set [1], the “Temp. at 4 h After Dosing” value came to 37.10 ± 0.172 °C. Moreover, the “Temp. at 8 h After Dosing” value in data set [1] turned out to be 37.32 ± 0.27 °C. Moreover, the inhibition in vivo at 10 mg/kg in [3] (setting [4]) amounted to 46%; in [3] (setting [5]), 37%.
As for `CC(C(=O)OCOC(=O)N1CCC(O)CC1)c1ccc(-c2ccccc2)c(F)c1` (stereo not drawn) [Compound 20], the IC50 with U87 was 54.6 µM; in the data set with H460 it was 35.9 µM; in the data set with NUGC-4, 50.4 µM; with U251, 5.84 µM; with MM.1S, 42.8 µM; in the data set on Eca-109 it was 33.2 µM. Moreover, the “paw volume effect as compared to the flurbiprofen group” value in the data set on rats with CIA was “better effects”. The “MWT effect as compared to the flurbiprofen group” value with rats with CIA is “slightly better or better effects”. In data set [1], the “Temp. at 4 h After Dosing” value worked out at 37.09 ± 0.25 °C. Besides, the “Temp. at 8 h After Dosing” value in data set [1] worked out at 37.27 ± 0.26 °C. Besides, the inhibition in vivo at 10 mg/kg in data set [3] (setting [4]) amounted to 52.7%; in [3] (setting [5]), 45%.
In the case of `Cc1cc(CO)c(O)c(COC(=O)C(C)c2ccc(-c3ccccc3)c(F)c2)c1` (stereo not drawn) [Compound 33], the 50% inhibitory concentration (IC50) in the data set with U87, with H460, in the data set on NUGC-4, with U251, in the data set with MM.1S and in the data set on Eca-109 was over 100 µM in each case. Besides, the “paw volume effect as compared to the flurbiprofen group” value in the data set with rats with CIA is on record as “better effects”. Besides, in the data set on rats with CIA, the “MWT effect as compared to the flurbiprofen group” value is “slightly better or better effects”. In addition, the “Temp. at 4 h After Dosing” value in [1] was determined as 37.18 ± 0.18 °C. Also, in data set [1], the “Temp. at 8 h After Dosing” value is 37.27 ± 0.28 °C. The same molecule returned an AUC in [2] of 8.75 ± 1.53 ng·h/mL. This molecule also had a peak concentration (Cmax) in data set [2] of 1.56 ± 0.509 ng/mL. In addition, the half-life in [2] is 9.08 ± 1.44 h. Besides, the values for the inhibition in vivo at 10 mg/kg in [3] (setting [4]) and in [3] (setting [5]) were 55.5% and 35.8%, respectively.
For the molecule `CC(C(=O)OCOC(=O)c1ccc(O)cc1)c1ccc(-c2ccccc2)c(F)c1` (stereo not drawn) [Compound 35], the concentration for half-maximal inhibition (IC50) in the data set with U87 came out at 60.3 µM; in the data set with H460, 32.6 µM; in the data set on NUGC-4, 41.8 µM; with U251, 7.33 µM; in the data set with MM.1S, 45.7 µM; in the data set on Eca-109 it was 29.6 µM. For the same molecule, the “paw volume effect as compared to the flurbiprofen group” value in the data set with rats with CIA was “better effects”. In the data set on rats with CIA, the “MWT effect as compared to the flurbiprofen group” value is “slightly better or better effects”. In addition, the “Temp. at 4 h After Dosing” value in data set [1] amounted to 37.15 ± 0.21 °C. Moreover, the “Temp. at 8 h After Dosing” value in [1] was found to be 37.29 ± 0.30 °C. The inhibition in vivo at 10 mg/kg in data set [3] (setting [4]) was 54.6%; in data set [3] (setting [5]), 49.8%.
